In ChEMBL document CHEMBL1201862, “PubChem BioAssay data set” (2004):
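Each compound was tested at five concentrations against cells in 96-well plates for 48 hours. Abbreviation: GI50, concentration required for 50% inhibition of growth.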 The source made the active and inactive calls. Rule as the data show it: active = GI50 up to about 1.1 µM and inactive = higher.

Columns and labels:
Experiment in all cases: NCI tumour cell line growth inhibition, 48 h
[1] = test system: IGROV-1
[2] = test system: SNB-19
[3] = test system: SF-539
[4] = test system: PC-3
[5] = test system: COLO 205
[6] = test system: UO-31
[7] = test system: OVCAR-4
[8] = test system: HT-29
[9] = test system: MOLT-4
[10] = test system: CCRF-CEM
[11] = test system: SNB-75
[12] = test system: HOP-92
[13] = test system: HCC 2998
[14] = test system: MCF7
[15] = test system: NCI/ADR-RES
[16] = test system: UACC-257
[17] = test system: UACC-62
[18] = test system: HCT-116
[19] = test system: 786-0
[20] = test system: CAKI-1

Row | Structure (SMILES) | GI50 [1] | GI50 [2] | GI50 [3] | GI50 [4] | GI50 [5] | GI50 [6] | GI50 [7] | GI50 [8] | GI50 [9] | GI50 [10] | GI50 [11] | GI50 [12] | GI50 [13] | GI50 [14] | GI50 [15] | GI50 [16] | GI50 [17] | GI50 [18] | GI50 [19] | GI50 [20]
1 | Nc1nncc2[nH]cnc12 | 57.8 µM (inactive) | > 100 µM (inactive) | 94.4 µM (inactive) | 69 µM (inactive) | 24.2 µM (inactive) | > 100 µM (inactive) | > 100 µM (inactive) | 39.4 µM (inactive) | 10.1 µM (inactive) | 5.09 µM (inactive) | > 56.9 µM (inactive) | > 100 µM (inactive) | > 100 µM (inactive) | 23.4 µM (inactive) | 94 µM (inactive) | 63.5 µM (inactive) | 47.3 µM (inactive) | 36.6 µM (inactive) | 48.3 µM (inactive) | 66.2 µM (inactive)
2 | O=C1/C(=C/c2ccccc2)CN(C(=O)CCN2CCCC2)C/C1=C\c1ccccc1 | 2.67 µM (inactive) | 2.51 µM (inactive) | 1.85 µM (inactive) | 0.724 µM (active) | 1.53 µM (inactive) | 2.77 µM (inactive) | 1.57 µM (inactive) | 0.867 µM (active) | 0.356 µM (active) | 0.286 µM (active) | 4.98 µM (inactive) | 4.44 µM (inactive) | 1.77 µM (inactive) | 0.64 µM (active) | 0.27 µM (active) | 2.45 µM (inactive) | 1.61 µM (inactive) | 0.355 µM (active) | 0.895 µM (active) | 3.98 µM (inactive)
3 | COc1cc2c(cc1C)NC(=O)/C2=C/c1c(Cl)[nH]c2cc(C)c(OC)cc12 | 1.32 µM (inactive) | 4.63 µM (inactive) | 0.395 µM (active) | 4.23 µM (inactive) | 2.33 µM (inactive) | 10 µM (inactive) | 5.48 µM (inactive) | 4.29 µM (inactive) | 1.45 µM (inactive) | 0.458 µM (active) | 2.34 µM (inactive) | 10.3 µM (inactive) | 4.11 µM (inactive) | 1.4 µM (inactive) | 3.19 µM (inactive) | 9.64 µM (inactive) | 2.07 µM (inactive) | 3.85 µM (inactive) | 3.23 µM (inactive) | 4.04 µM (inactive)
4 | CCCCC(=O)c1ccc2ccccc2c1O | > 100 µM (inactive) | > 100 µM (inactive) | > 100 µM (inactive) | > 100 µM (inactive) | 88.9 µM (inactive) | > 100 µM (inactive) | > 100 µM (inactive) | > 100 µM (inactive) | 84.1 µM (inactive) | 42.8 µM (inactive) | > 100 µM (inactive) | > 100 µM (inactive) | > 100 µM (inactive) | 52.8 µM (inactive) | > 100 µM (inactive) | > 100 µM (inactive) | > 100 µM (inactive) | > 100 µM (inactive) | > 100 µM (inactive) | > 100 µM (inactive)
5 | CC(C)[Si](OC1=CCC[C@H]2NC(=O)[C@@H](Cc3ccccc3)[C@@]12C)(C(C)C)C(C)C | 10.9 µM (inactive) | 10 µM (inactive) | 5.74 µM (inactive) | 3.37 µM (inactive) | 2.33 µM (inactive) | 10.1 µM (inactive) | 5.25 µM (inactive) | 3.43 µM (inactive) | 3.89 µM (inactive) | 2.85 µM (inactive) | 15.4 µM (inactive) | 2.32 µM (inactive) | 2.18 µM (inactive) | 3.55 µM (inactive) | 6.49 µM (inactive) | 4.54 µM (inactive) | 8.95 µM (inactive) | 3.6 µM (inactive) | 3.94 µM (inactive) | 3.85 µM (inactive)
6 | CCC(=S)N(C)O | 6.93 µM (inactive) | 63.5 µM (inactive) | 39.3 µM (inactive) | 8.69 µM (inactive) | 0.634 µM (active) | 26.8 µM (inactive) | 9.53 µM (inactive) | 0.839 µM (active) | 1.88 µM (inactive) | 0.459 µM (active) | 41 µM (inactive) | > 85.9 µM (inactive) | 55.6 µM (inactive) | 3.71 µM (inactive) | 17.1 µM (inactive) | 50.9 µM (inactive) | 20 µM (inactive) | 2.39 µM (inactive) | 11.6 µM (inactive) | 81.8 µM (inactive)
7 | CCC(NC(C)c1ccccc1)C(O)c1ccc(OCc2ccccc2)c(OCc2ccccc2)c1 (stereo not given) | 18.6 µM (inactive) | 14.5 µM (inactive) | 16.8 µM (inactive) | 13.9 µM (inactive) | 2.23 µM (inactive) | 11 µM (inactive) | 16.4 µM (inactive) | 3.31 µM (inactive) | 14.8 µM (inactive) | 14.2 µM (inactive) | 10.6 µM (inactive) | 5.74 µM (inactive) | 2.37 µM (inactive) | 14.3 µM (inactive) | 15.8 µM (inactive) | 4.04 µM (inactive) | 17.5 µM (inactive) | 14.5 µM (inactive) | 13.5 µM (inactive) | 11.9 µM (inactive)
8 | Clc1ccc(/N=C2\c3ccccc3CN2c2ccc(Cl)cc2)cc1 | 39.8 µM (inactive) | > 100 µM (inactive) | 30.2 µM (inactive) | 74.3 µM (inactive) | 1.58 µM (inactive) | > 100 µM (inactive) | 61.9 µM (inactive) | 19 µM (inactive) | > 100 µM (inactive) | < 0.01 µM (active) | 63.8 µM (inactive) | 39.9 µM (inactive) | 28.4 µM (inactive) | 5.2 µM (inactive) | > 100 µM (inactive) | > 100 µM (inactive) | > 100 µM (inactive) | 41.4 µM (inactive) | > 100 µM (inactive) | > 100 µM (inactive)
9 | Nc1nc(N)c(-c2cccc(C(F)(F)F)c2)c(Cc2cccc(C(F)(F)F)c2)n1 | 1.91 µM (inactive) | 5.7 µM (inactive) | 4.41 µM (inactive) | 11.7 µM (inactive) | 6.27 µM (inactive) | 6.32 µM (inactive) | 12.2 µM (inactive) | 1.18 µM (inactive) | 2.9 µM (inactive) | 6.92 µM (inactive) | 13.6 µM (inactive) | 12.2 µM (inactive) | 3.1 µM (inactive) | 3.84 µM (inactive) | 7.57 µM (inactive) | 3.43 µM (inactive) | 0.693 µM (active) | 0.64 µM (active) | 0.841 µM (active) | 7.23 µM (inactive)
10 | CC(C)[C@@H]1CC[C@@H](C)C[C@H]1OC(=O)/C=C1/C2C=CC(O2)C1C(=O)O[C@@H]1C[C@H](C)CC[C@H]1C(C)C (stereo not given in full) | > 100 µM (inactive) | > 100 µM (inactive) | > 100 µM (inactive) | 56 µM (inactive) | > 100 µM (inactive) | > 100 µM (inactive) | > 100 µM (inactive) | 48.5 µM (inactive) | 43.8 µM (inactive) | 45.5 µM (inactive) | > 100 µM (inactive) | > 100 µM (inactive) | 13.5 µM (inactive) | 97.5 µM (inactive) | > 100 µM (inactive) | 46.2 µM (inactive) | > 100 µM (inactive) | > 100 µM (inactive) | > 100 µM (inactive) | > 100 µM (inactive)
11 | Cc1ccc(Cc2nnc(S)[nH]2)cc1 | 50.8 µM (inactive) | > 100 µM (inactive) | > 100 µM (inactive) | > 100 µM (inactive) | > 100 µM (inactive) | 79.8 µM (inactive) | 32.3 µM (inactive) | > 100 µM (inactive) | > 100 µM (inactive) | 56.6 µM (inactive) | > 100 µM (inactive) | > 100 µM (inactive) | > 100 µM (inactive) | > 100 µM (inactive) | 77.6 µM (inactive) | > 100 µM (inactive) | > 100 µM (inactive) | 54.8 µM (inactive) | 75.3 µM (inactive) | > 100 µM (inactive)
12 | O=C(O)CCC(NC(=O)/C(=C/c1ccccc1)NC(=O)c1ccccc1)C(=O)O (stereo not given) | > 100 µM (inactive) | > 100 µM (inactive) | > 100 µM (inactive) | > 100 µM (inactive) | > 100 µM (inactive) | > 100 µM (inactive) | > 100 µM (inactive) | > 100 µM (inactive) | > 100 µM (inactive) | > 100 µM (inactive) | > 100 µM (inactive) | > 100 µM (inactive) | > 100 µM (inactive) | > 100 µM (inactive) | > 100 µM (inactive) | > 100 µM (inactive) | > 100 µM (inactive) | > 100 µM (inactive) | > 100 µM (inactive) | > 100 µM (inactive)
13 | COc1ccc(N2C(N)=C(C#N)C(C#N)(C#N)C2c2cccc([N+](=O)[O-])c2)cc1 (stereo not given) | 14.7 µM (inactive) | 17.9 µM (inactive) | 14.7 µM (inactive) | 17.1 µM (inactive) | 10.7 µM (inactive) | 17.3 µM (inactive) | 17.7 µM (inactive) | 13.9 µM (inactive) | 3.78 µM (inactive) | 3.05 µM (inactive) | 18.8 µM (inactive) | 12.9 µM (inactive) | 16.9 µM (inactive) | 19.9 µM (inactive) | 21.1 µM (inactive) | 13.7 µM (inactive) | 15.9 µM (inactive) | 9.91 µM (inactive) | 14.5 µM (inactive) | 2.61 µM (inactive)
